Measured values: patent publication US20180369195A1, “COMBINATION THERAPY FOR TREATMENT OF MELANOMA” (The Regents of the University of California, priority 2015, published 2018)

Legend:
[1] = tested on: G-361 cell-derived tumor xenografts; experiment: G-361 melanoma tumor xenograft growth in athymic nude mice; format: in vivo
Procedure: Approximately 1 million G361 melanoma cells in a total volume of 0.1 ml of Matrigel were injected subcutaneously into each lateral flank of NIH III athymic nude mice. The resulting tumors were allowed to grow to a mean starting volume of 146±10 mm^3. […] The resulting tumor volumes were measured every other day for four weeks using calipers. The tumor volumes were calculated using the standard formula: (Width×Length)/2, and changes in tumor volumes were calculated using the formula: 100+{(Tf−Ti)/Ti×100}, where Tf is the final mean tumor volume and Ti is the initial mean tumor volume. At terminal sacrifice, tumor xenografts were harvested, and a portion of each tumor was fixed in 4% para-formaldehyde for 1 hour at room temperature, followed by a phosphate-buffered saline (PBS) wash and subsequently immersed in […] overnight at 4° C. The resulting tissues were embedded in OCT and 10 μm thin sections were taken for immunofluorescence studies.

Wnt signaling pathway = experiment: Immunofluorescence of tumor xenograft sections for Wnt signaling pathway; format: in vivo, human; details: 1-benzyl I3C treated tumor xenografts vs DMSO
Procedure: Approximately 1 million G361 melanoma cells in a total volume of 0.1 ml of Matrigel were injected subcutaneously into each lateral flank of NIH III athymic nude mice. The resulting tumors were allowed to grow to a mean starting volume of 146±10 mm^3. The animals were then randomized into two groups; a vehicle control group that was treated with DMSO and an I3C treated group that were injected daily with 200 mg/kg body weight of I3C. The resulting tumor volumes were measured every other day for four weeks using calipers. The tumor volumes were calculated using the standard formula: […], and changes in tumor volumes were calculated using the formula: 100+{(Tf−Ti)/Ti×100}, where Tf is the final mean tumor volume and Ti is the initial mean tumor volume. At terminal sacrifice, tumor xenografts were harvested, and a portion of each tumor was fixed in 4% para-formaldehyde for 1 hour at room temperature, followed by a phosphate-buffered saline (PBS) wash and subsequently immersed in […] overnight at 4° C. The resulting tissues were embedded in OCT and 10 μm thin sections were taken for immunofluorescence studies.

[2] = tested on: normal epidermal melanocytes; experiment: CCK-8 proliferation assay, normal epidermal melanocytes; format: cell-based; details: 1-benzyl I3C treatment
[3] = tested on: 5 different melanoma cells lines; experiment: CCK-8 proliferation assay, 5 melanoma cell lines with distinct mutation profiles; format: cell-based, human; details: 20 μM 1-benzyl I3C, 200 μM I3C, 48 hours
Procedure: The same treatment regime was repeated on multiple melanoma cell lines with 20 μM 1-benzyl I3C and 200 μM I3C for 48 hours to compare the relative sensitivities of the different cell lines with distinct mutation profiles to 1-benzyl I3C and I3C. Cells were treated with 20 μM 1-benzyl I3C every 24 hours for 72 hours and harvested at 24, 48 and 72 hours for western blot and flow cytometric analysis. Cells were treated with 20 μM LiCl or 10 μM BIO for 48 hours before harvesting them for western blots.
(§1) Subsequently inhibition of proliferation was assessed using Cell counting Kit-8 (Dojindo) as per the protocol in the user's manual. Briefly, 50 μl of the CCK-8 solution was added to each well along with 450 μl media and incubated for 2-3 hours. The absorbance was read at 450 nm and % inhibition was calculated for each condition standardizing DMSO to zero using the formula: [(100−Value of treatment/Value of DMSO treated control)×100]

normal melanocytes = experiment: Flow cytometry analysis of DNA content, normal melanocytes; format: cell-based; details: varying doses of 1-benzyl I3C, 48 hours
GSK3β and Axin = experiment: Western blot of β-catenin destruction complex components; format: cell-based, human; details: melanoma cell lines, 20 μM 1-benzyl I3C
Procedure: (§2) Western Blot analyses of samples electrophoretically fractionated on 12% acrylamide gels were carried out as previously described (Wagle et al., J. Clin. Oncol. 2011. 29(22):3085-3096; Nguyen et al., Chem. Biol. Interact. 2010. 186(3):255-266). Enhanced chemiluminescence (ECL) Lightening reagents were used to visualize the primary antibody bound protein bands in nitrocellulose membranes and the results captured on ECL Autoradiography Film (GE Healthcare, Piscataway, N.J.). The western blots employed the following primary antibodies: mouse anti-MITF-M (Thermo-scientific), mouse anti-HSP 90 (BD Biosciences), mouse anti-CDK2, rabbit anti-CDK4, rabbit anti-CDK-6, mouse anti-rabbit BRAF, goat anti-LEF-1, rabbit anti-AXIN, mouse anti-BCL2, (Santa Cruz), rabbit anti-P21, mouse anti-Cyclin D1, rabbit anti-MEK-p, rabbit anti-MEK1/2, rabbit anti-GSK3β rabbit anti-LRP6, rabbit anti-LRP6-phospho (Cell signaling), mouse anti-β-catenin (Invitrogen).

LRP5/6 = experiment: Western blot of Wnt co-receptor; format: cell-based, human; details: melanoma cell lines, 20 μM 1-benzyl I3C
Procedure: as §2

LEF1 = experiment: Chromatin immunoprecipitation, LEF1 at MITF-M promoter; format: cell-based, human; details: G361 cells, 20 μM 1-benzyl I3C, 48 hours
RPMI-7951 cells = experiment: CCK-8 proliferation assay, RPMI-7951; format: cell-based, human; details: 200 μM I3C, 72 hours; BRAF-V600E
Procedure: as §1, with “Cells were treated with 20 μM 1-benzyl I3C every 24 hours for 72 hours and harvested at 24, 48 and 72 hours for western blot and flow cytometric analysis. […] Subsequently” for “Subsequently”

BRN2 = experiment: Immunofluorescence of BRN2 localization; format: cell-based, human; details: G-361 cells, 200 μM I3C, 48 hours
BRAF-V600E = target: T1, BRAF-V600E (Homo sapiens, UniProt P15056, V600E); experiment: In vitro BRAF kinase assay, in-vitro treated BRAF-V600E from G-361 cells; format: biochemical; details: pre-incubated 2 hours; 200 μM or 400 μM I3C
T1 construct: BRAF-V600E was immunoprecipitated from untreated G-361 cells and incubated in vitro; endogenous in cells; host or cells: G-361 human melanoma cells (ATCC)
Procedure: BRAF was pulled down from the cell lysates using anti-BRAF antibodies bound to protein G-coupled Sepharose beads, while IgG was used as a negative control. Post-immunoprecipitation supernatants were probed with anti BRAF antibody by western blots to determine pull-down efficiency. […] The reactions were terminated by adding 4× sodium dodecyl sulfate (SDS) sample buffer and boiling the mixture at 100° C. for 5 min. The samples were then electrophoresed, immunoblotted and probed for relative protein levels of phosphorylated MEK and total MEK to assess the kinase activity of the immunoprecipitated BRAF.

[4] = tested on: cultured human cancer cells; details: Wong et al. 1997; cited from earlier work

T1 sequence (P15056 whole entry V600E): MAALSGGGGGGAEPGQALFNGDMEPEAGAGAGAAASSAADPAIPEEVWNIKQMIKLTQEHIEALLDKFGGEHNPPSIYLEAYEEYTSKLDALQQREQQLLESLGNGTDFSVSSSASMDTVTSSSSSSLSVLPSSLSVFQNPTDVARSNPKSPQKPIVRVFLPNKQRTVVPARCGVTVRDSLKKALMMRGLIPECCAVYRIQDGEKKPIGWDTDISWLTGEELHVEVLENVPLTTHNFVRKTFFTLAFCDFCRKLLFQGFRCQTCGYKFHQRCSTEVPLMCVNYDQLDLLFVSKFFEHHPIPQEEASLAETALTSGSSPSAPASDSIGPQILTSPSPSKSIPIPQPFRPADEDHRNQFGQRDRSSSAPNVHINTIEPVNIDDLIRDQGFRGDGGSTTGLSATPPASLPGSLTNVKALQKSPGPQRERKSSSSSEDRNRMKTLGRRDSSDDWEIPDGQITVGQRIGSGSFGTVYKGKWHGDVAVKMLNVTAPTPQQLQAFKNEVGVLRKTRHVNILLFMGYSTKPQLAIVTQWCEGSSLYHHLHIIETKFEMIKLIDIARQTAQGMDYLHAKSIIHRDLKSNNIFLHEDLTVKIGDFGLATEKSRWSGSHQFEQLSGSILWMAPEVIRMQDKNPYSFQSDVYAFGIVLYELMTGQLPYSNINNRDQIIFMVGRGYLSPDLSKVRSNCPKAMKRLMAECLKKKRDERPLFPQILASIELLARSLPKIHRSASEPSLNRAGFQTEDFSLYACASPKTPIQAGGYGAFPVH

SMILES | tumor growth ([1]; 1-benzyl I3C 20 mg/kg body weight subcutaneously everyday, 4-week time course, vs vehicle) | size of the residual tumors at termination of treatment ([1]; 1-benzyl I3C 20 mg/kg, week 4) | effect on Wnt signaling pathway in tumor xenograft sections (Wnt signaling pathway) | antiproliferative response [2] | range of sensitivity across mutation profiles [3] | G1 cell cycle arrest (normal melanocytes) | GSK3β and Axin levels (GSK3β and Axin) | LRP5/6 levels (LRP5/6) | LEF1 interactions with the MITF-M promoter (LEF1) | tumor growth ([1]; I3C 200 mg/kg body weight injected daily, four-week course, vs DMSO vehicle) | sensitivity to anti-proliferative effects (RPMI-7951 cells) | nuclear localization of BRN2 (BRN2) | BRAF-V600E activity (phosphorylated MEK), direct in vitro incubation (BRAF-V600E) | optimal concentration for the anti-proliferative effect [4] [µM]
OCc1cn(Cc2ccccc2)c2ccccc12 [1-benzyl I3C, 1-benzyl indole-3-carbinol] | strongly attenuated tumor growth | significantly smaller than the vehicle control | mimicked the cell culture data | No such antiproliferative response | much wider range of sensitivity than I3C and Vemurafenib | no comparable effect on normal melanocytes | upregulation | significantly downregulated | significantly disrupted nuclear LEF1 interactions with this promoter | – | – | – | – | –
OCc1c[nH]c2ccccc12 [I3C, indole-3-carbinol] | – | – | – | – | – | – | – | – | – | strongly inhibited tumor growth | Most sensitive | disrupted the nuclear localization of Brn2 | strongly down regulated BRAF-V600E activity | 200
